The values that follow come from patent publication US5399697A, “N,N',N'-trisubstituted-5-bisaminomethylene-1,3-dioxane-4,6-dione inhibitors of acyl-CoA:cholesterol-acyl transferase” (American Home Products Corporation, priority 1993, dated 1995).

Experiment [1] relates to low density lipoprotein oxidation. In words: Antioxidant properties, low density lipoprotein oxidation studies (Parthasarathy et al.). The experiment is classed as biochemical. The conditions noted are these: result in words. The text has this:
(§1) The use of antioxidants in the treatment of atherosclerosis is also known to be of therapeutic value.

Experiment [2] deals with acyl-coenzyme A: cholesterol acyltransferase. In words: Inhibition of ACAT / intracellular cholesterol esterification in vitro (procedure of Ross et al.). The following applies: for % Inhibition: 25 μM; for IC50: read-out: IC50. The format is cell-based.
The test system of experiment [3] is lipoperoxide. In words: Antioxidant properties, lipoperoxide study of Yagi. The experiment is classed as biochemical. The following applies: result in words.
Description: as §1

Experiment [4] relates to plasma cholesterol. The experiment is described as follows: Plasma cholesterol in cholesterol-cholic acid fed rats. The experiment is classed as in vivo. The conditions noted are these: Rattus norvegicus, oral gavage; for change in vivo at 100 mg/kg / change in vivo at 40 mg/kg: 96 h, four days; for ED50: fifty percent reduction of plasma cholesterol. How it is done: In addition, representative compounds were studied in vivo in cholesterol-cholic acid fed rats to determine the percent decrease of cholesterol in their plasma. This study involves rats which are, prior to testing, trained for one week to eat over a four hour time period each day. Upon initiation of the experiment, the rats diet is supplemented with 1.0 percent cholesterol and 0.25 percent cholic acid. The rats are dosed with the test compound by oral gavage just prior to adjust following the four hour feeding period. This is repeated for four days. On the fifth day, the rats are sacrificed and the total plasma cholesterol content is determined. The percent decrease in elevated plasma cholesterol levels is calculated in comparison with […].

Experiment [5] concerns cholesterol absorption. The experiment is described as follows: 14C-cholesterol absorption in normal rats (oral gavage). The following applies: Rattus norvegicus; for ED50: normal fed rats. The format is in vivo. How it is done:
Representative compounds were further tested in vivo to establish the percent inhibition of cholesterol absorption. In this study, normal rats were dosed (oral gavage) with ^14 C-cholesterol plus the test compound. Blood samples taken at six hours and/or intermittently up to twenty-four hours were analyzed and the percent inhibition of cholesterol absorption was calculated.

Setting [6] is: read-out: % Decrease in Plasma Cholesterol.

A word on the % Inhibition: it is how much of the control response was suppressed. Broadly, the IC50 is the concentration that gives 50% inhibition. In general, ED50 refers to the midpoint of the dose-response relation.

Where two headings read alike, the source gives them in different places.

Take `CCCCCCN(Cc1ccc(CC(C)C)cc1)C(Nc1cc(C(C)(C)C)c(O)c(C(C)(C)C)c1)=C1C(=O)OC(C)(C)OC1=O` [Compound 77]: in experiment [1], the “antioxidant properties in low density lipoprotein oxidation studies” value was “demonstrated antioxidant properties”. Also, the “% Inhibition” value in experiment [2] was determined as 95%. For the same molecule, the “antioxidant properties in the lipoperoxide study” value in experiment [3] was “demonstrated antioxidant properties”.

Take `CCCCCCCN(Cc1ccc(CC(C)(C)C)cc1)C(Nc1cc(C(C)(C)C)c(O)c(C(C)(C)C)c1)=C1C(=O)OC(C)(C)OC1=O` [Compound 76, 5-[[[3,5-Bis(1,1-dimethylethyl)-4,1-hydrophenyl]amino][[[4-(2,2-dimethylpropyl)phenyl]methyl]heptylamino]methylene]-2,2-dimethyl-1,3-dioxane-4,6-dione]: the “antioxidant properties in low density lipoprotein oxidation studies” value in experiment [1] is “demonstrated antioxidant properties”. In experiment [2], the “% Inhibition” value worked out at 96% and the IC50 was 60 nM. In addition, the “antioxidant properties in the lipoperoxide study” value in experiment [3] was “demonstrated antioxidant properties”.

Turning to `CCCCCCN(Cc1ccc(CC(C)(C)C)cc1)C(Nc1cc(C(C)(C)C)c(O)c(C(C)(C)C)c1)=C1C(=O)OC(C)(C)OC1=O` [Compound 79, 5-[[[3,5-Bis(1,1-dimethylethyl)-4-hydroxyphenyl]amino][[[4-(2,2-dimethylpropyl)phenyl]methyl]hexylamino]methylene]-2,2-dimethyl-1,3-dioxane-4,6-dione], the “antioxidant properties in low density lipoprotein oxidation studies” value in experiment [1] is “demonstrated antioxidant properties”. Further, the “antioxidant properties in the lipoperoxide study” value in experiment [3] was “demonstrated antioxidant properties”.

In the case of `CCCCCC(C)N(Cc1ccc(CC(C)(C)C)cc1)C(Nc1cc(C(C)(C)C)c(O)c(C(C)(C)C)c1)=C1C(=O)OC(C)(C)OC1=O` (stereo not drawn) [Compound 75], the “antioxidant properties in low density lipoprotein oxidation studies” value in experiment [1] is “demonstrated antioxidant properties”. Besides, the “antioxidant properties in the lipoperoxide study” value in experiment [3] is on record as “demonstrated antioxidant properties”.

For `CCCCCCCN(Cc1ccc(C(C)(C)C)cc1)C(Nc1ccc(N(C)C)cc1)=C1C(=O)OC(C)(C)OC1=O` [Compound 5, 5-[[[4-(Dimethylamino)phenyl]amino][[[4-(1,1-dimethylethyl)phenyl]methyl]heptylamino]methylene]-2,2-dimethyl-1,3-dioxane-4,6-dione], in experiment [4] (setting [6]), the change in vivo at 100 mg/kg is -35%. Moreover, the change in vivo at 200 mg/kg in experiment [5] (normal rats, 200 mg/kg, read-out: % Inhibition of Absorption) is -91%. Moreover, in experiment [2], the “% Inhibition” value is 99% and the IC50 turned out to be 1100 nM.

With `CCCCCc1ccc(CN(C(Nc2ccc(N(C)C)cc2)=C2C(=O)OC(C)(C)OC2=O)C(C)CCCCC)cc1` (stereo not drawn) [Compound 41, 5-[[[4-(Dimethylamino)phenyl]amino][(1-methylhexyl)[(4-pentylphenyl)methyl]amino]-methylene]-2,2-dimethyl-1,3-dioxane-4,6-dione], the change in vivo at 40 mg/kg in experiment [4] (setting [6]) is -89%. The molecule further came in with an ED50 in experiment [4] of 7 mg/kg. Moreover, the ED50 in experiment [5] is 3 mg/kg. Further, in experiment [2], the “% Inhibition” value worked out at 98% and the IC50 was determined as 260 nM.

`CCCCCC(C)N(Cc1ccc(CC(C)(C)C)cc1)C(Nc1ccc(OC)cc1OC)=C1C(=O)OC(C)(C)OC1=O` (stereo not drawn) [Compound 7, 5-[[(2,4-Dimethoxyphenyl)amino][[[4-(2,2-dimethylpropyl)phenyl]methyl](1-methylhexyl)amino]methylene]-2,2-dimethyl-1,3-dioxane-4,6-dione]: the change in vivo at 100 mg/kg in experiment [4] (heading: % Decrease in Plasma Cholesterol) is -100%. In experiment [4], this molecule registered a 50% effective dose (ED50) of 6 mg/kg. Also, the ED50 in experiment [5] turned out to be 3 mg/kg. Further, in experiment [2], the “% Inhibition” value turned out to be 99% and the IC50 stood at 830 nM.

For the molecule `CCCCCc1ccc(CN(C(Nc2ccc(OC)cc2OC)=C2C(=O)OC(C)(C)OC2=O)C(C)CCCCC)cc1` (stereo not drawn) [Compound 40], the change in vivo at 40 mg/kg in experiment [4] (setting [6]) was -78%. The molecule also displayed an ED50 in experiment [4] of 7 mg/kg. Besides, the ED50 in experiment [5] was 2 mg/kg. Besides, the change in vivo at 10 mg/kg in experiment [5] (normal rats, 10 mg/kg, read-out: % Inhibition of Absorption) was -69%. Further, in experiment [2], the “% Inhibition” value turned out to be 99% and the IC50 stood at 360 nM.

As to `CC(C)CCCC(C)N(Cc1ccc(CC(C)C)cc1)C(Nc1ccc(N(C)C)cc1)=C1C(=O)OC(C)(C)OC1=O` (stereo not drawn) [Compound 42], the change in vivo at 40 mg/kg in experiment [4] (setting [6]) was -63%. The molecule also returned an ED50 in experiment [5] of 5 mg/kg. In addition, in experiment [2], the “% Inhibition” value is 98% and the concentration for half-maximal inhibition (IC50) turned out to be 270 nM.

In the case of `CCCCCC(C)N(Cc1ccc(C(C)(C)C)cc1)C(Nc1ccc(OCCCC)cc1)=C1C(=O)OC(C)(C)OC1=O` (stereo not drawn) [Compound 27, 5-[[(4-Butoxyphenyl)amino][[[4-(1,1-dimethylethyl)phenyl]methyl](1-methylhexyl)amino]-methylene]-2,2-dimethyl-1,3-dioxane-4,6-dione], the change in vivo at 40 mg/kg in experiment [4] (setting [6]) was -31%. In experiment [5] (normal rats, 20 mg/kg, read-out: % Inhibition of Absorption), the change in vivo at 20 mg/kg was -58%. In addition, in experiment [2], the “% Inhibition” value was determined as 96% and the concentration for half-maximal inhibition (IC50) is 230 nM.
